ChEMBL document CHEMBL1201862, “PubChem BioAssay data set” (2004)
Calls of active or inactive are those of the source.

Tests used:
[1] = biological target: Delta-type opioid receptor (Homo sapiens, UniProt P41143); experiment: SAR Analysis of Agonists of the DOR Receptor using an Image-Based Assay - Set 3. [Related pubchem assays (depositor defined):AID1777, AID1786]; type: functional
Mu-type opioid receptor = Mu-type opioid receptor (Homo sapiens, UniProt P35372); experiment: SAR Analysis of Agonists of the MOR Receptor using an Image-Based Assay - Set 3. [Related pubchem assays (depositor defined):AID1777, AID1785, AID1786, AID1966, AID2133, AID2136, AID2284, AID2285, AID2352]; type: functional
Sequence of Mu-type opioid receptor (P35372 whole entry): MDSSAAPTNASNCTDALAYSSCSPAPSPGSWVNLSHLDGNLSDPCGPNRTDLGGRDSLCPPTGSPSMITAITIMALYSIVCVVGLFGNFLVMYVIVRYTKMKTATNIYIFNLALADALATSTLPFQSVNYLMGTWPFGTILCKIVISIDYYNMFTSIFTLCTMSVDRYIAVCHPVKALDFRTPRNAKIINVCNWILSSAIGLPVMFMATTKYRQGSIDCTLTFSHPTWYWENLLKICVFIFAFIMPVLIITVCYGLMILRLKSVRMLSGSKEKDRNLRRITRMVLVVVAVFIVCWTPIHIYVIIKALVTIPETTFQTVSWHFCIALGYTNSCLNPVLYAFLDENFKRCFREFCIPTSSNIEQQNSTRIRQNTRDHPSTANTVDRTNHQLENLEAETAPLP

[2] = biological target: T1, Kappa-type opioid receptor (Homo sapiens, UniProt P41145); experiment: kappa opioid receptor activation by imaging – image-based, set 3, SAR follow-up (AID 488833); type: functional
T1 sequence (P41145 whole entry): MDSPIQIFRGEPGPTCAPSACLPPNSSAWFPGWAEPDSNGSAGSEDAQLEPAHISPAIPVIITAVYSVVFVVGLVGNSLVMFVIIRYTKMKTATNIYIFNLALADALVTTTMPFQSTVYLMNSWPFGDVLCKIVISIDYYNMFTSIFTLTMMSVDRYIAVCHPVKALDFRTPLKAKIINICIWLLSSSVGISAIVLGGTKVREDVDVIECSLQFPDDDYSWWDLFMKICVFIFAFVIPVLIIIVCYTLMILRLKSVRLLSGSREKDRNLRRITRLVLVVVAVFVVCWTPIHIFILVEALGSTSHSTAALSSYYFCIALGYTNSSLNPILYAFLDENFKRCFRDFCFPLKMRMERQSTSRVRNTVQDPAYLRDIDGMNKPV

[3] = biological target: T1, Kappa-type opioid receptor; experiment: SAR analysis of small molecule agonists of the kappa opioid receptor via a luminescent beta-arrestin assay - Set 3. [Related pubchem assays (depositor defined):AID1777, AID1785, AID1786, AID1966, AID2133, AID2136, AID2284, AID2500]; type: functional
[4] = biological target: T2, Tyrosine-protein phosphatase non-receptor type 22 (Homo sapiens, UniProt Q9Y2R2); experiment: SAR LYP1 Fluorescent Assay using OMFP substrate for In Vitro dose response studies - Set 2. [Related pubchem assays (depositor defined):AID1779, AID1784, AID2140, AID449726, AID488869]; type: functional
T2 sequence (Q9Y2R2 whole entry): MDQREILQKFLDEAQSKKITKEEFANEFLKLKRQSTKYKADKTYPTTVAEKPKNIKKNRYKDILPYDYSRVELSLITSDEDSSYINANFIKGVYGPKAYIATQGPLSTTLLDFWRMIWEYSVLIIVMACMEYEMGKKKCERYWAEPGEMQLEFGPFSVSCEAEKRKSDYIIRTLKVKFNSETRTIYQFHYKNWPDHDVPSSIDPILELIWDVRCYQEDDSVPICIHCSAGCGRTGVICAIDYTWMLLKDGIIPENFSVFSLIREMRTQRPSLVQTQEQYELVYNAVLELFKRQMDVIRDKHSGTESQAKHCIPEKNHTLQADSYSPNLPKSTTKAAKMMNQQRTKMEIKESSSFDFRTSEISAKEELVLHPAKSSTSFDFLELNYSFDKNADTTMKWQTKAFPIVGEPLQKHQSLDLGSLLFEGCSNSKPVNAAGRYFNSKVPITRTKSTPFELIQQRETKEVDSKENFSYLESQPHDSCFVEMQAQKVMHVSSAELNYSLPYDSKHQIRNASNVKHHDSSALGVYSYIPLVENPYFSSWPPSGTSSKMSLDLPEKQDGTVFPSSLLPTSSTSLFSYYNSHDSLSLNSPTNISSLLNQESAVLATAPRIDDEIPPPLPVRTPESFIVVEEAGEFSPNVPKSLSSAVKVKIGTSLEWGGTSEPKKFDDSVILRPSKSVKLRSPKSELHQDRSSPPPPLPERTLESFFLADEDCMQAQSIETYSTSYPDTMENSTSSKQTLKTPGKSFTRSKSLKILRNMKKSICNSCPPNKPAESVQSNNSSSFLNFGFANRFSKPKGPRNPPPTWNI

[5] = biological target: T2, Tyrosine-protein phosphatase non-receptor type 22; experiment: SAR LYP1 Fluorescent Assay using pCAP substrate for In Vitro dose response studies - Set 2. [Related pubchem assays (depositor defined):AID1779, AID1784, AID2135, AID449727]; type: functional
[6] = biological target: T2, Tyrosine-protein phosphatase non-receptor type 22; experiment: inhibition of lymphoid tyrosine phosphatase LYP – biochemical, pCAP fluorogenic substrate, fluorescence, set 3, SAR follow-up (AID 449727); type: functional
[7] = biological target: T3, Tyrosine-protein phosphatase non-receptor type 7 (Homo sapiens, UniProt P35236); experiment: inhibition of hematopoietic tyrosine phosphatase HePTP – biochemical, set 2, SAR follow-up (AID 449736); type: functional
T3 sequence (P35236 whole entry): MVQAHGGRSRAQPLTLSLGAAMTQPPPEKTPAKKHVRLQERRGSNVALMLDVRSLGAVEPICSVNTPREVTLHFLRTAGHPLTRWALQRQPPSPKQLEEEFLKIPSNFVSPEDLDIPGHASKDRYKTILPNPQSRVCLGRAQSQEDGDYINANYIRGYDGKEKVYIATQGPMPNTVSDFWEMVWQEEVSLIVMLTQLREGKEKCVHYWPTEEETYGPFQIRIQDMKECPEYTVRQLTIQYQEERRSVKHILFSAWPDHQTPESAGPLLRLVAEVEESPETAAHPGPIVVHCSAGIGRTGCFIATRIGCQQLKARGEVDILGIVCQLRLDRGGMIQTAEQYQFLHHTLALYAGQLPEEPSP

[8] = biological target: T2, Tyrosine-protein phosphatase non-receptor type 22; experiment: SAR LYP1 Fluorescent Assay using OMFP substrate for In Vitro dose response studies - Set 3. [Related pubchem assays (depositor defined):AID1779, AID1784, AID2140, AID2686]; type: functional
Insulin-degrading enzyme = biological target: T4, Insulin-degrading enzyme (Homo sapiens, UniProt P14735); experiment: Dose Response: Fluorescence polarization-based cell-based high throughput dose response assay for inhibitors of insulin-degrading enzyme (IDE). [Related pubchem assays: 434962 (Primary screen (IDE inhibitors in singlicate)), 449730 (Counterscreen (Cytotoxicity in triplicate)), 435028 (Confirmation (IDE inhibitors in triplicate)), 434984 (Summary …; type: functional
T4 sequence (P14735 whole entry): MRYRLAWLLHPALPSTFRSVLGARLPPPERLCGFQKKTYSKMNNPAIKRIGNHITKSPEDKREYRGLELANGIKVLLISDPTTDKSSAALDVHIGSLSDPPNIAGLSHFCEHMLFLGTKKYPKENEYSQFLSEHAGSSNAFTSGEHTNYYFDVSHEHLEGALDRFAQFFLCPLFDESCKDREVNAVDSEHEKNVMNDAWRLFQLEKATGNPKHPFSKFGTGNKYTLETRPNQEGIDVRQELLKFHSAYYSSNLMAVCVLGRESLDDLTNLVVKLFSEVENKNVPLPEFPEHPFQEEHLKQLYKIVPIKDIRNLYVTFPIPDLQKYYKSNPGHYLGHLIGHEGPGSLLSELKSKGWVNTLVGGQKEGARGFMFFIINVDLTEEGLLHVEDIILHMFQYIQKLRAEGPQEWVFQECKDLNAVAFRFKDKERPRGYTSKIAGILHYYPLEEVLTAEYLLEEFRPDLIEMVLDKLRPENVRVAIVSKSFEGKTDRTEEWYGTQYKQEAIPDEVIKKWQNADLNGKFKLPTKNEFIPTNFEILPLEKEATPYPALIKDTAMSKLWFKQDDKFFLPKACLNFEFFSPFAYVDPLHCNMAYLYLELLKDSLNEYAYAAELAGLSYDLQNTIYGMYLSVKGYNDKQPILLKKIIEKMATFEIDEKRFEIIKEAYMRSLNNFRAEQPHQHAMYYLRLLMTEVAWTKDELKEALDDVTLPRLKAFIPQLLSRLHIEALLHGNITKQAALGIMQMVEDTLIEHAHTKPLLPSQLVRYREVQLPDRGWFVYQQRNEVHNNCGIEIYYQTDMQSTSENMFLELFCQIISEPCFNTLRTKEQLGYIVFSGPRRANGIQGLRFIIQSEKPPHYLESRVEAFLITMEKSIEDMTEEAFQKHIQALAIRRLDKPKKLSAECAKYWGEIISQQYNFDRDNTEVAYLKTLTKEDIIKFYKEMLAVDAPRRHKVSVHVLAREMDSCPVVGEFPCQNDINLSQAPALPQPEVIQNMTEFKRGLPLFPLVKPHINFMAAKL

[9] = Counterscreen for IDE inhibitors: Luminescence-based cell-based high throughput dose response assay to identify compounds that are cytotoxic to HEK cells. [Related pubchem assays: 434962 (Primary screen (IDE inhibitors in singlicate)), 449730 (Counterscreen (Cytotoxicity in triplicate)), 435028 (Confirmation (IDE inhibitors in triplicate)) …; type: functional; settings: HEK293
[10] = biological target: Dual specificity tyrosine-phosphorylation-regulated kinase 1A (Rattus norvegicus, UniProt Q63470); type: biochemical, Homo sapiens
[11] = biological target: Intestinal-type alkaline phosphatase (Homo sapiens, UniProt P09923); experiment: inhibition of human intestinal alkaline phosphatase – biochemical, dose response (AID 488876); type: functional
Sequence of Intestinal-type alkaline phosphatase (Homo sapiens, UniProt P09923) (P09923 whole entry): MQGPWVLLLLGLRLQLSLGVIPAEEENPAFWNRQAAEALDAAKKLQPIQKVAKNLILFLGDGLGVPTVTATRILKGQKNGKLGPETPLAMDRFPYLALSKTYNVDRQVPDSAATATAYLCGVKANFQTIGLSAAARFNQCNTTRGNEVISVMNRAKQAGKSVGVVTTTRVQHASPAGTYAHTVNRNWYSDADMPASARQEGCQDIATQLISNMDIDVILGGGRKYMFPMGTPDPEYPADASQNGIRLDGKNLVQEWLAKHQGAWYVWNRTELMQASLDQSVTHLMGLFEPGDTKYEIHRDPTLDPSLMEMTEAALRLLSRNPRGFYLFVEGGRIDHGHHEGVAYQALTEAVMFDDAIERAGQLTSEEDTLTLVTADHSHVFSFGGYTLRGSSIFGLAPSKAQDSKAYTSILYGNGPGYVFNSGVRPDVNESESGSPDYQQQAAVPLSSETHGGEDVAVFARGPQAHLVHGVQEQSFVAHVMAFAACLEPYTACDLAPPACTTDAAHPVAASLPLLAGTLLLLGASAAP

[12] = biological target: T5, Alkaline phosphatase, tissue-nonspecific isozyme (Homo sapiens, UniProt P05186); experiment: TNAP enzyme inhibition by screening hits, dose response, selectivity assay for mouse IAP inhibitor project, biochemical, human TNAP, uHTS hits (AID 488906); type: functional
T5 sequence (P05186 whole entry): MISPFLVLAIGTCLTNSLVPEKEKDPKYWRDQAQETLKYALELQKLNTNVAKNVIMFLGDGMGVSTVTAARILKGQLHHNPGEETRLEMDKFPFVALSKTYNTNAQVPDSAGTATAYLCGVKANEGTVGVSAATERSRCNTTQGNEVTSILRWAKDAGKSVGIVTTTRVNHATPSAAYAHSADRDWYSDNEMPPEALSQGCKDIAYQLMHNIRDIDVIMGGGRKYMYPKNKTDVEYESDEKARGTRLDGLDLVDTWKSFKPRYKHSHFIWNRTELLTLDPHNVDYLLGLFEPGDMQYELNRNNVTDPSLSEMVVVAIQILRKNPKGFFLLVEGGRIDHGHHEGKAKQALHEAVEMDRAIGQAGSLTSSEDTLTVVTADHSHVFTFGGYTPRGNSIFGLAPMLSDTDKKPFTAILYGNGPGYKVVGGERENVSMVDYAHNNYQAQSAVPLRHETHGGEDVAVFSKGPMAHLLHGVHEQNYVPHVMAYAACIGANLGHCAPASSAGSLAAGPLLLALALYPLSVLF

[13] = biological target: Intestinal-type alkaline phosphatase (Mus musculus, UniProt P24822); experiment: PubChem AID 488785; type: functional
Sequence of Intestinal-type alkaline phosphatase (Mus musculus, UniProt P24822) (P24822 whole entry): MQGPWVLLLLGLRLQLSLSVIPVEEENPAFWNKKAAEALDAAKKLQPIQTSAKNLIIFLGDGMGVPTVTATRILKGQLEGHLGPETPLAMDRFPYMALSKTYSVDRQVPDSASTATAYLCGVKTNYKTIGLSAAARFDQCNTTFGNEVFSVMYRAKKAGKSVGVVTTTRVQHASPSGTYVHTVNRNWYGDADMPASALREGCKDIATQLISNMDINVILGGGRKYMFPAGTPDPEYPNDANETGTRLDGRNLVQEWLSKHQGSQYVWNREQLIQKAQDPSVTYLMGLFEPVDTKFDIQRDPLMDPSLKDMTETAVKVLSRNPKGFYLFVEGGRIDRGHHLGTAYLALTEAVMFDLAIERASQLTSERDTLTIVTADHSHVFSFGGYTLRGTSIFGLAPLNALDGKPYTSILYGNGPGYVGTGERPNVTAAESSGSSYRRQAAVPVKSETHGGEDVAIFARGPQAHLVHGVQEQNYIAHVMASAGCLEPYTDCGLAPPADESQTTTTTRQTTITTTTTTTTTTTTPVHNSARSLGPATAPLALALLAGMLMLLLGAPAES

Sequence of Delta-type opioid receptor (P41143 whole entry): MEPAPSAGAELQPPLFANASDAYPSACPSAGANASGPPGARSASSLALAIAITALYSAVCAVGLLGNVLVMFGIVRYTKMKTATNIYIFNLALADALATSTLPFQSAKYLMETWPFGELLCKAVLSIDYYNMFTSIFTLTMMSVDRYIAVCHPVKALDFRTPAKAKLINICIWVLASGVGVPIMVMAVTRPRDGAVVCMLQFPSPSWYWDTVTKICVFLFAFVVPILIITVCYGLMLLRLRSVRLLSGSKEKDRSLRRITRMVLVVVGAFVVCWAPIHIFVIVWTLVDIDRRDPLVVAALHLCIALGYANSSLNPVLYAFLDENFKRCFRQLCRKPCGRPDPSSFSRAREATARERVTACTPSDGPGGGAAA

Cc1c(CSc2nnc(-c3ccccn3)n2Cc2ccco2)cccc1[N+](=O)[O-]
EC50 [1]: > 64 µM (inactive) | EC50 (Mu-type opioid receptor): > 32 µM (inactive) | EC50 [2]: 12.2 µM (inactive) | EC50 [3]: 8.21 µM (active)

NC1=NC(=O)/C(=C/c2ccc(OCC(=O)O)cc2)S1
IC50 [4]: > 100 µM (inactive) | IC50 [5]: 55 µM (active) | IC50 [6]: 44.8 µM (active) | IC50 [7]: > 100 µM (inactive) | IC50 [8]: > 100 µM (inactive)

COc1cc(/C=N/N2C(=O)CSC2=S)ccc1O
IC50 (Insulin-degrading enzyme): > 6.22 µM (active) | IC50 [9]: > 55.7 µM (not active) | AC50 [10]: 9.55 µM (active) | IC50 [11]: 21.3 µM (active) | IC50 [12]: > 100 µM (inactive) | IC50 [13]: 2.2 µM (active)
